From article PMC6130628, “Some pharmacokinetic parameters of salvianolic acid A following single-dose oral administration to rats” (Pharmaceutical Biology, 2018)
Like-named read-outs stand apart in the source and are kept apart here.

Key:
[1] = Pharmacokinetic study in vivo (plasma, LC–MS, noncompartmental); conditions: both sexes, Sprague-Dawley, rat, rats; for MRT last: read-out: MRT0–t; for AUC(0-t) / Cmax: single dose
Procedure: Ninety-six healthy, intact Sprague-Dawley rats (male/female, 1/1, 185-215 g, Certificate No. SCXK 2006-0009) were purchased from Vital River Laboratories (Beijing, China). The rats were maintained in air-conditioned animal quarters with alternating 12 h light/dark cycles at a room temperature of 22 ± 2 °C and a relative humidity of 50 ± 10%. The rodents were given a commercial rat chow and water ad libitum. The experiment started after acclimation to the facilities for 7 days. All animal studies were conducted in accordance with “Principles of laboratory animal care” (NIH publication No. 85-23, revised 1985) and under protocols approved by the Ethic Committee of Laboratory Animals of the Affiliated Hospital of Qingdao University ([…] 2013-2-4-01). Rats were fasted overnight (∼12 h) and had free access to water throughout the experimental period. […] The doses applied in this study were determined according to, on the one hand, the doses applied in pharmacodynamic experiments in rats (Yang et al. [2011a]; Yang et al. [2011b]; Yu et al. [2012]; Hou et al. [2017]), and on the other hand, the results of our preliminary absorption experiments. The blood samples were taken crossly from the orbital sinus into tubes pretreated with heparin before dosing and subsequently at 0.083, 0.167, 0.25, 0.333, 0.5, 0.75, 1, 2, 4, 8, 12 and 24 h postdosing. After blood sampling, the samples were centrifuged at 4,500 rpm for 15 min at 4 °C to obtain 200 μL of plasma samples. These samples were immediately frozen and maintained at -80 °C until analysis. Plasma samples were thawed at room temperature before processing. To a 200 μL aliquot of plasma sample, 10 μL of VC (10 mg/mL) and 10 μL of the IS spiking solution (butyl paraben, 1 μg/mL) were added. Then, the mixture was acidified with 100 μL of 1 mol/L HCl and vortex-mixed with 800 μL of EtOAc for 3 min. […] EtOAc (800 μL) was added again to the lower aqueous phase and the extraction process was repeated. […] The residue was reconstituted in 100 μL of MeOH-H2O (50:50, v/v, containing VC 100 μg/mL). After centrifugation at 13,400 rpm for 5 min, 20 μL of the supernatant was injected to the LC-MS system. DAS pharmacokinetic software Data Analysis System Version 3.0 (Bontz Inc., Beijing, China) was used for pharmacokinetic analysis of Sal A concentrations. The noncompartmental model was applied for analysis of the data following intravenous and oral administration of Sal A. The peak plasma concentration (Cmax), the corresponding time (Tmax), the mean residence time (MRT) and the area under the concentration-time curve (AUC) could all be obtained. After intravenous and oral administration of Sal A to rats, plasma concentration was determined by LC-MS. The data obtained from each group was averaged. […] The oral bioavailability (F) was calculated by using AUCoral/dose divided by AUCiv/dose.

[2] = parameters: method as in Sun et al. [2013]; conditions: Beagle dogs, oral, pure form; ref Sun et al. [2013]; cited from earlier work
[3] = parameters: method as in Lai et al. [2011]; conditions: rats, salvianolic acid extract 800 mg/kg oral (Sal A 5.71% of mixture); ref Lai et al. [2011]; cited from earlier work
[4] = cited from earlier work

O=C(/C=C/c1ccc(O)c(O)c1/C=C/c1ccc(O)c(O)c1)O[C@H](Cc1ccc(O)c(O)c1)C(=O)O [Sal A, Salvianolic acid A]
MRT last ([1]; iv, 50 ug/kg, i.v. 50 µg/kg): 0.62 h | Tmax ([1]; iv, 50 ug/kg, i.v. 50 µg/kg, read-out: Tmax): 0.08 h | half-life ([1]; iv, 50 ug/kg, i.v. 50 µg/kg, read-out: t1/2 (converted)): 6.16 h | AUC(0-t) ([1]; iv, 50 ug/kg, i.v. 50 µg/kg): 205 ng·h/mL | Cmax ([1]; iv, 50 ug/kg, i.v. 50 µg/kg): 579 ng/mL | bioavailability ([1]; po, 5 mg/kg, oral 5 mg/kg vs i.v. 50 µg/kg, AUCoral/dose divided by AUCiv/dose, read-out: F (oral bioavailability)): 0.52% | Tmax ([1]; po, 5 mg/kg, oral 5 mg/kg, read-out: Tmax): 1 h | half-life ([1]; po, 5 mg/kg, oral 5 mg/kg, read-out: t1/2 (converted)): 1.96 h | bioavailability ([1]; po, 10 mg/kg, oral 10 mg/kg vs i.v. 50 µg/kg, read-out: F (oral bioavailability)): 0.41% | Tmax ([1]; po, 10 mg/kg, oral 10 mg/kg, read-out: Tmax): 1 h | half-life ([1]; po, 10 mg/kg, oral 10 mg/kg, read-out: t1/2 (converted)): 1.72 h | bioavailability ([1]; po, 20 mg/kg, oral 20 mg/kg vs i.v. 50 µg/kg, read-out: F (oral bioavailability)): 0.39% | Tmax ([1]; po, 20 mg/kg, oral 20 mg/kg, read-out: Tmax): 1 h | half-life ([1]; po, 20 mg/kg, oral 20 mg/kg, read-out: t1/2 (converted)): 1.79 h | bioavailability ([1]; po, 20 mg/kg, oral in pure form, over the doses 5, 10 and 20 mg/kg, read-out: absolute (oral) bioavailability): 0.39 to 0.52% | half-life ([1]; po, 20 mg/kg, oral, over the doses 5, 10 and 20 mg/kg, read-out: half-life period (t1/2)): 1.72 to 1.96 h | Tmax ([1]; po, oral, 5–20 mg/kg, read-out: time to peak concentration in plasma (Tmax)): ≤ 1 h | MRT last ([1]; oral 5 mg/kg): 2.91 h | AUC(0-t) ([1]; oral 5 mg/kg): 106 ng·h/mL | Cmax ([1]; oral 5 mg/kg): 31.5 ng/mL | MRT last ([1]; oral 10 mg/kg): 2.33 h | AUC(0-t) ([1]; oral 10 mg/kg): 167 ng·h/mL | Cmax ([1]; oral 10 mg/kg): 57.4 ng/mL | MRT last ([1]; oral 20 mg/kg): 2.36 h | AUC(0-t) ([1]; oral 20 mg/kg): 317 ng·h/mL | Cmax ([1]; oral 20 mg/kg): 112 ng/mL | absolute bioavailability [2]: 1.25% | absolute bioavailability of Sal A [3]: 2.5% | stability in intestinal alkaline environment ([4]; alkaline environment, ref Liu et al. [2011]): instability | stability in distilled water ([4]; distilled water, room temperature, ref Xu et al. [2008]): instable
